Source: ChEMBL document CHEMBL1133273, “Synthesis and evaluation of quinoline carboxyguanidines as antidiabetic agents” (2000)

Tests used:
Type in all cases: functional
Rattus norvegicus [1] = test: Percent glycaemia evolution at 200 mg/kg at 2 hr after a sharp administration (J1) in Wistar rats
Rattus norvegicus [2] = test: Percent glycaemia evolution at 200 mg/kg at 2 hr after the last administration for 4 days chronic treatment (J4) in Wistar rats
Rattus norvegicus [3] = test: Percent glycaemia evolution at 20 mg/kg at 2 hr after a sharp administration (J1) in Wistar rats
Rattus norvegicus [4] = test: Percent glycaemia evolution at 20 mg/kg at 2 hr after the last administration for 4 days chronic treatment (J4) in Wistar rats
Rattus norvegicus [5] = test: Number of deaths at 200 mg/kg at 2 hr after the last administration for 4 days chronic treatment (J4) in Wistar rats; 4 death/5
Rattus norvegicus [6] = test: Number of deaths at 20 mg/kg at 2 hr after the last administration for 4 days chronic treatment (J4) in Wistar rats; 1 death/5

Row | Structure (SMILES) | Glycaemia evolution (Rattus norvegicus [1]) [%] | Glycaemia evolution (Rattus norvegicus [2]) [%] | Glycaemia evolution (Rattus norvegicus [3]) [%] | Glycaemia evolution (Rattus norvegicus [4]) [%] | No. of deaths (Rattus norvegicus [5]) | No. of deaths (Rattus norvegicus [6])
1 | CCOc1cc(C(=O)Nc2nn[nH]n2)nc2ccc(F)cc12 | 9 | -6 | 8 | 4 |  | 
2 | NC(=O)NNC(=O)c1cc(O)c2cc(F)ccc2n1 | -7 | -14 | -6 | -16 |  | 
3 | CCOc1cc(C(=O)N=C(N)N)nc2cc(OC)ccc12 | 6 | 2 | 2 | -2 |  | 
4 | CCOc1cc(C(=O)N=C(N)N)nc2ccc(F)cc12.Cl | -5 | -30 | -8 | -10 |  | 
5 | Cl.N=C(N)NC(=O)c1cc(O)c2cc(F)ccc2n1 | -7 | -14 | -5 | -15 |  | 
6 | CCn1cc(C(=O)N=C(N)N)c(=O)c2cc(OC)ccc21.Cl | 0 | -9 | 0 | 0 |  | 
7 | COc1ccc2ncc(C(=O)N=C(N)N)c(O)c2c1.Cl | -8 | 3 | 5 | 3 |  | 
8 | CCOc1cc(C(=O)NN=C(N)N)nc2ccc(F)cc12.Cl | -4 | -14 | 6 | -3 |  | 
9 | Cl.N=C(N)NC(=O)c1cc(Cl)c2cc(F)ccc2n1 | 58 |  | 19 |  | 4 | 1
10 | CCn1cc(C(=O)N=C(N)N)c(=O)c2ccc(C)nc21.Cl | -4 | -21 | 1 | -11 |  | 
11 | CCN1CC(C(=O)N/N=C(\N)N=C(N)N)C(=O)c2cc(OC)ccc21.Cl (stereo not given) | 2 | -5 | -3 | -2 |  | 
12 | CCOc1cc(C(=O)NNC(N)=O)nc2ccc(F)cc12 | 8 | -3 | 3 | -8 |  | 
13 | Cl.N=C(N)NNC(=O)c1cc(O)c2cc(F)ccc2n1 | 8 | -2 | 8 | 4 |  | 
14 | CCOc1cc(C(=O)N=C(N)N)nc2cc3c(cc12)OCO3.Cl | -4 | -7 | 1 | -6 |  | 
15 | CCn1cc(C(=O)NN=C(N)N)c(=O)c2cc(OC)ccc21.Cl | 6 | -6 | -10 | -12 |  | 
